Laboratory results reported in publication PMC9505425, “Targeting of the Mitochondrial TET1 Protein by Pyrrolo[3,2-b]pyrrole Chelators” (International Journal of Molecular Sciences, 2022).
Values joined by “and” are separate entries in the source; they are usually repeats but may differ in a detail not shown here. Equal values may be shown once.

Columns and labels:
Type in all cases: cell-based, human
[1] = system: H-1299 cells; experiment: MTT cytotoxicity assay, H-1299
Protocol: (§1) The effects of the tested compounds 1–6 on HF-P4, U-118 MG, H1299, BT-20, and Caov-3 cell lines were evaluated by the MTT assay during 48 h treatment (Table 2 and Tables S2–S31). In all tested compounds, we recognized a difference in cytotoxicity between healthy cells (HF-P4) and cancer cell lines (BT-20, Caov-3, and H-1299). […] In the case of ovarian cancer, the authors discovered oncogenic and poor prognosis roles of TET1 in epithelial ovarian carcinoma (EOC). TET1 is believed to demethylate the epigenome and activate numerous oncogenic pathways in EOC. The aforementioned study presents a new mechanism where TET1 contributes to tumor development through collaboration with CK2α [21]. The overexpression of the TET1 protein was also found in triple negative breast cancer and was associated with an activation of PI3K/mTOR pathway and decreased overall survival.
(§2) A human glioblastoma cell line (U118-MG) and a human non-small-cell lung carcinoma cell line (H1299) were used for the cytotoxicity assay (MTT). Both cell lines were generously supplied by Dr. M. Masařik, PhD, Department of Pathological physiology, Masaryk University, Czech Republic. U118-MG cells were cultivated under standard conditions in Dulbecco’s modified Eagle’s medium (ATCC, Manassas, VA, USA) supplemented with 10% FBS and streptomycin (100 μg/mL) at 37 °C at a 5% CO2 atmosphere. H1299 cells were cultivated under standard conditions in RPMI 1640 (BioTech, Prague, Czech Republic) medium supplemented with 10% FBS and streptomycin (100 μg/mL) at 37 °C at a 5% CO2 atmosphere.
(§3) For the cytotoxicity assay, we used the following cell lines: human glioblastoma cell line U118-MG, human mammary gland/breast cell line BT-20, human ovary adenocarcinoma cell line Caov-3, and non-small-cell lung carcinoma H-1299. As previously mentioned, these cell lines contain a high level of the TET1 protein, which corresponds to a lower overall survival. In addition to these cell cultures, we used the human dermal fibroblast cell line HF-P4 as a healthy control. Determination of cytotoxicity was performed using the MTT [3-(4,5-dimethylthiazol-2-yl)-2,5-diphenyltetrazolium bromide] colorimetric assay. Viable cells from each cell line were cultured in 96-well plates (VWR, Stříbrná Skalice, Czech Republic) at a density of 1.0 × 10^5 cells per well and allowed to grow for 24 h in 200 μL of recommended medium. After a 1-day incubation, the medium was replaced with solutions of compounds 1–6 at concentration ranges of 0.1–20 μM. Each concentration was measured four times within one test, and the entire test was repeated three times. Tested compounds 1–6 were dissolved in DMSO and then diluted with corresponding medium to a final volume of 200 μL (maximum 1% DMSO). After 48 h exposure, cells were treated with 175 μL of MTT solution (P-LAB, Prague, Czech Republic) for 2 h. In the next step, MTT solution was removed, and 125 μL of DMSO (Penta, Prague, Czech Republic) was added to solubilize dark crystals of formazan formed in intact cells, and absorbance was measured at 570 nm by the enzyme-linked immunoabsorbent assay reader Infinite® 200 PRO (Tecan, Männedorf, Switzerland). The final DMSO concentration was smaller than 1% (v/v). The absorbance of untreated cells was considered 100%, and IC50 values were calculated by the GraphPad Prism 8 software. As a parameter for cytotoxicity, we used a concentration that inhibits 50% of cell growth (IC50).

[2] = system: HF-P4 cells; experiment: MTT cytotoxicity assay, HF-P4; details: 48 h; for Cell viability %: repeats
Protocol: as §1
(§4) A human dermal fibroblast cell line was used for intracellular localization and cytotoxicity assay (MTT). Human fibroblast cells HF-P4 (human fibroblasts—patient 4) are normal dermal fibroblasts, which were obtained from the residual skin of a healthy patient who underwent plastic surgery (with informed consent of the patient). HF-P4 cell lines were obtained from the Department of Plastic Surgery, Third Faculty of Medicine, Charles University and University Hospital Královské Vinohrady, Prague, Czech Republic, as described by Szabo et al., 2011, and Dvořánková et al., 2019 [88, 89], and have been processed in accordance with the relevant local ethics committee and the Declaration of Helsinki protection of patients’ rights and benefits with written and signed informed consent of each patient. Cells were cultivated under standard conditions in Dulbecco’s modified Eagle’s medium (ATCC, Manassas, VA, USA), supplemented with 10% FBS and streptomycin (100 μg/mL) at 37 °C at a 5% CO2 atmosphere.
as §3

[3] = MTT cytotoxicity assay, HF-P4; details: human, HF-P4 normal human dermal fibroblasts, repeats, read-out: Cell viability %
Protocol: as §1, §4, §3

[4] = system: U-118 MG cells; experiment: MTT cytotoxicity assay, U-118 MG; details: 48 h
Protocol: as §1, §2, §3

What does the source list for Cc1ccc(-n2c(-c3ccc(C(=O)N/N=C/c4ccc(O)cc4O)cc3)cc3c2cc(-c2ccc(C(=O)N/N=C/c4ccc(O)cc4O)cc2)n3-c2ccc(C)cc2)cc1 [Compound 4]?
Cell viability % ([1]; H-1299, 100 nM, 48 h, repeats, 0.1 µM): 109.0835% and 92.98%; Cell viability % ([1]; H-1299, 500 nM, 48 h, repeats, 0.5 µM): 110.8313% and 69.08% and 86.72%; Cell viability % ([1]; H-1299, 750 nM, 48 h, repeats, 0.75 µM): 86.2% and 81.89%; Cell viability % ([1]; H-1299, 1 uM, 48 h, repeats, 1 µM): 88.02% and 73.99% and 66.83%; Cell viability % ([1]; H-1299, 2.5 uM, 48 h, repeats, 2.5 µM): 77.91% and 68.92%; Cell viability % ([1]; H-1299, 5 uM, 48 h, repeats, 5 µM): 68.74% and 52.75%; Cell viability % ([1]; H-1299, 7.5 uM, 48 h, repeats, 7.5 µM): 38.28% and 33.07%; Cell viability % ([1]; H-1299, 10 uM, 48 h, repeats, 10 µM): 21.64% and 18.84%; Cell viability % ([1]; H-1299, 15 uM, 48 h, repeats, 15 µM): 10.46% and 11.78%; Cell viability % ([1]; H-1299, 20 uM, 48 h, repeats, 20 µM): 7.89% and 6.315%; viability at 0.1 µM ([1]; Homo sapiens, NCI-H1299, 48 h, H-1299, 100 nM, repeats, read-out: Cell viability %): 110%; viability at 0.75 µM ([1]; Homo sapiens, NCI-H1299, 48 h, H-1299, 750 nM, repeats, read-out: Cell viability %): 86.1%; viability at 2.5 µM ([1]; Homo sapiens, NCI-H1299, 48 h, H-1299, 2.5 uM, repeats, read-out: Cell viability %): 77.6%; viability at 5 µM ([1]; Homo sapiens, NCI-H1299, 48 h, H-1299, 5 uM, repeats, read-out: Cell viability %): 66.7%; viability at 7.5 µM ([1]; Homo sapiens, NCI-H1299, 48 h, H-1299, 7.5 uM, repeats, read-out: Cell viability %): 35.8%; viability at 10 µM ([1]; Homo sapiens, NCI-H1299, 48 h, H-1299, 10 uM, repeats, read-out: Cell viability %): 14.8%; viability at 15 µM ([1]; Homo sapiens, NCI-H1299, 48 h, H-1299, 15 uM, repeats, read-out: Cell viability %): 11.1%; viability at 20 µM ([1]; Homo sapiens, NCI-H1299, 48 h, H-1299, 20 uM, repeats, read-out: Cell viability %): 7.35%; IC50 ([1]; Homo sapiens, NCI-H1299, MTT, 48 h): 5.75 µM; Cell viability % ([2]; HF-P4, 100 nM, 0.1 µM): 100.6236% and 114.7117%; Cell viability % ([2]; HF-P4, 500 nM, 0.5 µM): 87.47% and 94.87%; Cell viability % ([2]; HF-P4, 750 nM, 0.75 µM): 85.1% and 92.38%; Cell viability % ([2]; HF-P4, 1 uM, 1 µM): 81.67% and 86.71%; Cell viability % ([2]; HF-P4, 2.5 uM, 2.5 µM): 86.63% and 76.23%; Cell viability % ([2]; HF-P4, 5 uM, 5 µM): 73.34% and 61.32%; Cell viability % ([2]; HF-P4, 7.5 uM, 7.5 µM): 70.27% and 58.24%; Cell viability % ([2]; HF-P4, 10 uM, 10 µM): 62.49% and 65.68%; Cell viability % ([2]; HF-P4, 15 uM, 15 µM): 53.94% and 54.86%; Cell viability % ([2]; HF-P4, 20 uM, 20 µM): 38.68% and 44.63%; IC50 ([2]; Homo sapiens, MTT): 13.1 µM; viability at 48 h, 0.1 µM ([3]; HF-P4, 100 nM): 102%; viability at 48 h, 0.5 µM ([3]; HF-P4, 500 nM): 94.9%; viability at 48 h, 0.75 µM ([3]; HF-P4, 750 nM): 84.8%; viability at 48 h, 1 µM ([3]; HF-P4, 1 uM): 86%; viability at 48 h, 2.5 µM ([3]; HF-P4, 2.5 uM): 74.5%; viability at 48 h, 5 µM ([3]; HF-P4, 5 uM): 74.9%; viability at 48 h, 7.5 µM ([3]; HF-P4, 7.5 uM): 66.9%; viability at 48 h, 10 µM ([3]; HF-P4, 10 uM): 59.9%; viability at 48 h, 15 µM ([3]; HF-P4, 15 uM): 45.1%; viability at 48 h, 20 µM ([3]; HF-P4, 20 uM): 36.4%; viability at 0.1 µM ([4]; Homo sapiens, U-118-MG, U-118 MG, 100 nM, repeats, read-out: Cell viability %): 89.7%; viability at 0.5 µM ([4]; Homo sapiens, U-118-MG, U-118 MG, 500 nM, repeats, read-out: Cell viability %): 81.5%; viability at 0.75 µM ([4]; Homo sapiens, U-118-MG, U-118 MG, 750 nM, repeats, read-out: Cell viability %): 88.6%; viability at 1 µM ([4]; Homo sapiens, U-118-MG, U-118 MG, 1 uM, repeats, read-out: Cell viability %): 88.8%; viability at 2.5 µM ([4]; Homo sapiens, U-118-MG, U-118 MG, 2.5 uM, repeats, read-out: Cell viability %): 78.8%; viability at 5 µM ([4]; Homo sapiens, U-118-MG, U-118 MG, 5 uM, repeats, read-out: Cell viability %): 73.7%; viability at 7.5 µM ([4]; Homo sapiens, U-118-MG, U-118 MG, 7.5 uM, repeats, read-out: Cell viability %): 24.8%; viability at 10 µM ([4]; Homo sapiens, U-118-MG, U-118 MG, 10 uM, repeats, read-out: Cell viability %): 30%; viability at 15 µM ([4]; Homo sapiens, U-118-MG, U-118 MG, 15 uM, repeats, read-out: Cell viability %): 21.2%; viability at 20 µM ([4]; Homo sapiens, U-118-MG, U-118 MG, 20 uM, repeats, read-out: Cell viability %): 15.2%; IC50 ([4]; Homo sapiens, U-118-MG, MTT): 6.81 µM; Cell viability % ([4]; U-118 MG, 100 nM, repeats, 0.1 µM): 88.01% and 106.1964%; Cell viability % ([4]; U-118 MG, 500 nM, repeats, 0.5 µM): 94.35% and 91.8%; Cell viability % ([4]; U-118 MG, 750 nM, repeats, 0.75 µM): 93.98% and 97.45%; Cell viability % ([4]; U-118 MG, 1 uM, repeats): 94.85% and 87.1%; Cell viability % ([4]; U-118 MG, 2.5 uM, repeats): 87.61% and 83.16%; Cell viability % ([4]; U-118 MG, 5 uM, repeats): 72.71% and 76.46%; Cell viability % ([4]; U-118 MG, 7.5 uM, repeats): 24.19% and 24.17%; Cell viability % ([4]; U-118 MG, 10 uM, repeats): 29.03% and 31.26%; Cell viability % ([4]; U-118 MG, 15 uM, repeats): 21.17% and 19.82%; Cell viability % ([4]; U-118 MG, 20 uM, repeats): 15.6756% and 12.31%
